Assay results: patent USRE39591E1, “6-O-substituted ketolides having antibacterial activity” (Abbott Laboratories, priority 1996, dated 2007)
≈ marks a conversion by molar mass, not a printed value.

Tested on: up to 32 different microorganisms
Test: in vitro antibacterial activity (MIC), agar dilution on Brain Heart Infusion (BHI) agar with Steers replicator
Type: cell-based
Details: unit assumed
Outline: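 Erythromycin A served as the same-class reference for test-to-test comparability. Test compound was tested over twelve successive dilutions in BHI agar; plates were incubated 20 to 24 hours at 35°-37° C, with MIC taken as the lowest concentration showing no growth, slight haze, or sparse colonies.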

[1] = Candida albicans CCH 442 (code TT)
[2] = Enterococcus faecism ATCC 8043 (code II)
[3] = Escherichia coli DC-2 (code SS)
[4] = Escherichia coli JUHL (code QQ)
[5] = Micrococcus luteus ATCC 4698 (code PP)
[6] = Micrococcus luteus ATCC 9341 (code OO)
[7] = Mycobacterium smegmatis ATCC 114 (code UU)
[8] = Nocardia Asteroides ATCC9970 (code VV)
[9] = Staphylococcus aureus 1775 (code GG)
[10] = Staphylococcus aureus A-5278 (code CC)
[11] = Staphylococcus aureus ATCC 6538P (code AA)
[12] = Staphylococcus aureus CMX 553 (code FF)
[13] = Staphylococcus aureus CMX 642A (code DD)
[14] = Staphylococcus aureus NCTC10649M (code EE)
[15] = Staphylococcus epidermidis 3519 (code HH)
[16] = Streptococcus agalactiae CMX 508 (code KK)
[17] = Streptococcus bovis A-5169 (code JJ)
[18] = Streptococcus pyogenes 930 (code MM)
[19] = Streptococcus pyogenes EES61 (code LL)
[20] = Streptococcus pyogenes PIU 2548 (code NN)

## CCC1OC(=O)C(C)C(=O)C(C)C(OC2OC(C)CC(N(C)C)C2O)C(C)(OCC=Cc2cccc3ncccc23)CC(C)C(=O)C(C)C2NC(=O)OC12C (stereo not drawn) [Example 196, R is —CH2CH═CH-(5-quinolyl)]
[1]
  MIC: > 100 µg/mL
[2]
  MIC: 0.05 µg/mL (≈ 0.0653 µM)
[3]
  MIC: > 100 µg/mL
[4]
  MIC: > 100 µg/mL
Escherichia coli SS (code RR)
  MIC: 0.39 µg/mL (≈ 0.509 µM)
[5]
  MIC: 0.1 µg/mL (≈ 0.131 µM)
[6]
  MIC: 0.01 µg/mL (≈ 0.0131 µM)
[7]
  MIC: 0.2 µg/mL (≈ 0.261 µM)
[8]
  MIC: 0.1 µg/mL (≈ 0.131 µM)
[9]
  MIC: > 100 µg/mL
[10]
  MIC: > 100 µg/mL
[11]
  MIC: 0.1 µg/mL (≈ 0.131 µM)
[12]
  MIC: 0.1 µg/mL (≈ 0.131 µM)
[13]
  MIC: 0.1 µg/mL (≈ 0.131 µM)
[14]
  MIC: 0.1 µg/mL (≈ 0.131 µM)
[15]
  MIC: 0.2 µg/mL (≈ 0.261 µM)
[16]
  MIC: ≤ 0.005 µg/mL
[17]
  MIC: ≤ 0.005 µg/mL
[18]
  MIC: > 100 µg/mL
[19]
  MIC: ≤ 0.005 µg/mL
[20]
  MIC: 0.2 µg/mL (≈ 0.261 µM)

## CCC1OC(=O)C(C)C(=O)C(C)C(OC2OC(C)CC(N(C)C)C2O)C(C)(OCC=Cc2cccc(-c3ccccc3)c2)CC(C)C(=O)C(C)C2NC(=O)OC12C (stereo not drawn) [Example 280, Compound of Formula (IX): L is CO, T is NH2, R is —CH2CH═CH-(3-biphenyl)]
Organism code AA
  MIC: 0.39 µg/mL
Organism code BB
  MIC: 0.39 µg/mL
Organism code CC
  MIC: 50 µg/mL
Organism code DD
  MIC: 0.39 µg/mL
Organism code EE
  MIC: 0.39 µg/mL
Organism code FF
  MIC: 0.39 µg/mL
Organism code GG
  MIC: 50 µg/mL
Organism code HH
  MIC: 0.39 µg/mL
Organism code II
  MIC: 0.2 µg/mL
Organism code JJ
  MIC: 0.05 µg/mL
Organism code KK
  MIC: 0.05 µg/mL
Organism code LL
  MIC: 0.1 µg/mL
Organism code MM
  MIC: 12.5 µg/mL
Organism code NN
  MIC: 0.39 µg/mL
Organism code OO
  MIC: 0.1 µg/mL
Organism code PP
  MIC: 0.78 µg/mL
Organism code QQ
  MIC: > 100 µg/mL
Organism code RR
  MIC: 1.56 µg/mL
Organism code SS
  MIC: > 100 µg/mL
Organism code TT
  MIC: > 100 µg/mL
Organism code UU
  MIC: 3.1 µg/mL
Organism code VV
  MIC: 6.2 µg/mL
Organism code WW
  MIC: 8 µg/mL
Organism code XX
  MIC: 0.06 µg/mL
Organism code YY
  MIC: 0.06 µg/mL
Organism code ZZ
  MIC: 16 µg/mL
Organism code ZZA
  MIC: 1 µg/mL

## CC[C@H]1OC(=O)[C@H](C)C(=O)[C@H](C)[C@@H](O[C@@H]2O[C@H](C)C[C@H](N(C)C)[C@H]2O)[C@@](C)(OCCNCCc2ccccc2)C[C@@H](C)C(=O)[C@H](C)[C@@H](O)[C@]1(C)O [Example 10]
[1]
  MIC: > 100 µg/mL
[2]
  MIC: 6.2 µg/mL (≈ 8.6 µM)
[3]
  MIC: > 100 µg/mL
[4]
  MIC: > 100 µg/mL
Escherichia coli SS (code RR)
  MIC: 1.56 µg/mL (≈ 2.16 µM)
Haemophilis influenzae DILL AMP R (code WW)
  MIC: 64 µg/mL (≈ 88.8 µM)
[5]
  MIC: 1.56 µg/mL (≈ 2.16 µM)
[6]
  MIC: 0.2 µg/mL (≈ 0.277 µM)
[7]
  MIC: 12.5 µg/mL (≈ 17.3 µM)
[8]
  MIC: 1.56 µg/mL (≈ 2.16 µM)
[9]
  MIC: > 100 µg/mL
Staphylococcus aureus A5177 (code BB)
  MIC: 6.2 µg/mL (≈ 8.6 µM)
[10]
  MIC: > 100 µg/mL
[11]
  MIC: 6.2 µg/mL (≈ 8.6 µM)
[12]
  MIC: 6.2 µg/mL (≈ 8.6 µM)
[13]
  MIC: 6.2 µg/mL (≈ 8.6 µM)
[14]
  MIC: 6.2 µg/mL (≈ 8.6 µM)
[15]
  MIC: 6.2 µg/mL (≈ 8.6 µM)
Streptococcus Pneumonia 5649 (code ZZA)
  MIC: 4 µg/mL (≈ 5.55 µM)
Streptococcus Pneumonia 5979 (code ZZ)
  MIC: > 128 µg/mL
Streptococcus Pneumonia ATCC6303 (code XX)
  MIC: 2 µg/mL (≈ 2.77 µM)
Streptococcus Pneumonia GYR 1171 (code YY)
  MIC: 2 µg/mL (≈ 2.77 µM)
[16]
  MIC: 1.56 µg/mL (≈ 2.16 µM)
[17]
  MIC: 0.2 µg/mL (≈ 0.277 µM)
[18]
  MIC: > 100 µg/mL
[19]
  MIC: 0.39 µg/mL (≈ 0.541 µM)
[20]
  MIC: 1.56 µg/mL (≈ 2.16 µM)

## CC[C@H]1OC(=O)[C@H](C)C(=O)[C@H](C)[C@@H](O[C@@H]2O[C@H](C)C[C@H](N(C)C)[C@H]2O)[C@@](C)(OCC#Cc2ccc3cc(OC)ccc3c2)C[C@@H](C)C(=O)[C@H](C)[C@H]2NC(=O)O[C@@]21C [Example 252, Compound of Formula (IX): L is CO, T is NH, R is —CH2—C≡C-(6-methoxy-2-naphthyl)]
Organism code AA
  MIC: 0.1 µg/mL
Organism code BB
  MIC: 0.1 µg/mL
Organism code CC
  MIC: > 100 µg/mL
Organism code DD
  MIC: 0.1 µg/mL
Organism code EE
  MIC: 0.1 µg/mL
Organism code FF
  MIC: 0.1 µg/mL
Organism code GG
  MIC: > 100 µg/mL
Organism code HH
  MIC: 0.1 µg/mL
Organism code II
  MIC: 0.05 µg/mL
Organism code JJ
  MIC: 0.002 µg/mL
Organism code KK
  MIC: 0.02 µg/mL
Organism code LL
  MIC: 0.05 µg/mL
Organism code MM
  MIC: 3.1 µg/mL
Organism code NN
  MIC: 0.1 µg/mL
Organism code OO
  MIC: 0.02 µg/mL
Organism code PP
  MIC: 0.2 µg/mL
Organism code QQ
  MIC: > 100 µg/mL
Organism code RR
  MIC: 0.78 µg/mL
Organism code SS
  MIC: > 100 µg/mL
Organism code TT
  MIC: > 100 µg/mL
Organism code UU
  MIC: 0.2 µg/mL
Organism code VV
  MIC: 0.05 µg/mL
Organism code WW
  MIC: 2 µg/mL
Organism code XX
  MIC: 0.03 µg/mL
Organism code YY
  MIC: 0.03 µg/mL
Organism code ZZ
  MIC: 4 µg/mL
Organism code ZZA
  MIC: 0.25 µg/mL
